Data: patent US20220259193A1, “KCNT1 INHIBITORS AND METHODS OF USE” (Praxis Precision Medicines, Inc., priority 2019, published 2022)

Target: T1, KCNT1 (KNa1.1, Slack) (Homo sapiens, UniProt Q5JUK3)
T1 construct: expressed in transfected cells; host or cells: HEK-TREX (tetracycline-inducible HEK cell line)
T1 sequence (Q5JUK3 1-1230): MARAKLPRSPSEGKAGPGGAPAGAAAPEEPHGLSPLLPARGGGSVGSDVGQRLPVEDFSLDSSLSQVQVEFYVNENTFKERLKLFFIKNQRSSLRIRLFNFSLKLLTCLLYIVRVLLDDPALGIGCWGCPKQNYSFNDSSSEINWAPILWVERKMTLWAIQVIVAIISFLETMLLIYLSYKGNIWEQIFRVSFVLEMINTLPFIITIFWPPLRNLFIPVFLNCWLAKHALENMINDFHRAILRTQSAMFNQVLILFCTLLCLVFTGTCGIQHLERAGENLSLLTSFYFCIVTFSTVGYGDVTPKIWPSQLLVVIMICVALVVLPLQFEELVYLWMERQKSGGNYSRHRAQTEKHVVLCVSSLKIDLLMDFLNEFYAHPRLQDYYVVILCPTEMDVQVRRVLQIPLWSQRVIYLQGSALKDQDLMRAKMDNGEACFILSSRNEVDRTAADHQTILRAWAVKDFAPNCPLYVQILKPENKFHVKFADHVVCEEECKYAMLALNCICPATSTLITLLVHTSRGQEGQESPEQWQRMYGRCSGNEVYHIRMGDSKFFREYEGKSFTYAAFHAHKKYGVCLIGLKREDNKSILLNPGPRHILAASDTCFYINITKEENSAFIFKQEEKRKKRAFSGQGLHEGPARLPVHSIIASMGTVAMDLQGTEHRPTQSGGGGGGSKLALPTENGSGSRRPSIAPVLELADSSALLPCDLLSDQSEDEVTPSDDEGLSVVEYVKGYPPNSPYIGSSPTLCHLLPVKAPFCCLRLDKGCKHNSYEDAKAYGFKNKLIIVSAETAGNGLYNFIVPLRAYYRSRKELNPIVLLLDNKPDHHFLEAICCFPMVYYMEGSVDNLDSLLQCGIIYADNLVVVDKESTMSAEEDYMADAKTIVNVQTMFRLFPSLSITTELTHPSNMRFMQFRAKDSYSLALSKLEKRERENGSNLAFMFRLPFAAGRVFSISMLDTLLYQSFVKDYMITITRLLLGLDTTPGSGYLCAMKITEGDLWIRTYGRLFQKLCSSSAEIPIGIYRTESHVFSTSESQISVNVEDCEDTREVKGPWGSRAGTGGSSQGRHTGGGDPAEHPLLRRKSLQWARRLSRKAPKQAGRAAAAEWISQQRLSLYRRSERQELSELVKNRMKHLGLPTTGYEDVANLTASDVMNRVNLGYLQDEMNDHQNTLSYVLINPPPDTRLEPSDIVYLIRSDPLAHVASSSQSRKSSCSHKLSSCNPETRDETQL
Test: KCNT1 patch clamp assay (SyncroPatch 384PE automated patch clamp)
Assay type: cell-based
Details: tetracycline inducible HEK-TREX cell line; perforated patch; step from −80 mV to 0 mV; room temperature; read-out: KCNT1-WT IC50
Protocol: KCNT1—Patch Clamp Assay Inhibition of KCNT1 (KNa1.1, Slack) was evaluated using a tetracycline inducible cell line (HEK-TREX). Currents were recorded using the SyncroPatch 384PE automated, patch clamp system. Pulse generation and data collection were performed with PatchController384 V1.3.0 and DataController384 V1.2.1 (Nanion Technologies). The access resistance and apparent membrane capacitance were estimated using built-in protocols. Current were recorded in perforated patch mode (10 μM escin) from a population of cells. […] The cells were allowed to recover in the cell hotel prior to experimentation. Currents were recorded at room temperature. […] The extracellular solution was used as the wash, reference and compound delivery solution. […] Escin is made at a 5 mM stock in water, aliquoted, and stored at −20° C. The compound plate was created at 2× concentrated in the extracellular solution. The compound was diluted to 1:2 when added to the recording well. The amount of DMSO in the extracellular solution was held constant at the level used for the highest tested concentration. A holding potential of −80 mV with a 100 ms step to 0 mV was used. […] The average mean current from 3 sweeps was calculated and the % inhibition of each compound was calculated. The % Inhibition as a function of the compound concentration was fit with a Hill equation to derive IC50, slope, min and max parameters.

SMILES	IC50
C[C@H](NC(=O)c1ccnn1C1CCC1)c1nc(-c2ccnc(C3CC3)c2)no1 [Compound 304, 2-cyclobutyl-N-[(1S)-1-[3-(2-cyclopropyl-4-pyridyl)-1,2,4-oxadiazol-5-yl]ethyl]pyrazole-3-carboxamide]	≤ 1000 nM
COCCn1nc(C(F)(F)F)cc1C(=O)N[C@@H](C)c1nc(-c2ccnc(C(F)(F)F)c2)no1 [Compound 239, (S)-1-(2-methoxyethyl)-3-(trifluoromethyl)-N-(1-(3-(2-(trifluoromethyl)pyridin-4-yl)-1,2,4-oxadiazol-5-yl)ethyl)-1H-pyrazole-5-carboxamide]	≤ 1000 nM
C[C@H](NC(=O)c1cc(C(F)F)nn1C)c1nc(-c2ccnc(C3CCCC3)c2)no1 [Compound 308, (S)—N-(1-(3-(2-cyclopentylpyridin-4-yl)-1,2,4-oxadiazol-5-yl)ethyl)-3-(difluoromethyl)-1-methyl-1H-pyrazole-5-carboxamide]	≤ 1000 nM
Cn1nc(C2CC2)cc1C(=O)NC(COCc1ccccc1)c1nc(-c2cccc(F)c2)no1 (centres unmarked) [Compound 58, N-[2-benzyloxy-1-[3-(3-fluorophenyl)-1,2,4-oxadiazol-5-yl]ethyl]-5-cyclopropyl-2-methyl-pyrazole-3-carboxamide]	1000 to 20000 nM
Cn1nc(C(F)(F)F)cc1C(=O)NC(CC(=O)N1CC(O)C1)c1nc(-c2cccc(F)c2)no1 (centres unmarked) [Compound 123]	≥ 20000 nM
Cn1nc(C(F)(F)F)cc1C(=O)NC(CC#N)c1nc(-c2cccc(F)c2)no1 (centres unmarked) [Compound 141]	1000 to 20000 nM
Cn1nc(C2CC2)cc1C(=O)NC(CO)c1nc(-c2cccc(F)c2)no1 (centres unmarked) [Compound 54]	≥ 20000 nM
C[C@H](NC(=O)c1cc(C(F)(F)F)nn1Cc1ccncc1)c1nc(-c2ccnc(C(F)(F)F)c2)no1 [Compound 246, (S)-1-(pyridin-4-ylmethyl)-3-(trifluoromethyl)-N-(1-(3-(2-(trifluoromethyl)pyridin-4-yl)-1,2,4-oxadiazol-5-yl)ethyl)-1H-pyrazole-5-carboxamide]	≤ 1000 nM
CC(C)Oc1cc(-c2noc([C@H](C)NC(=O)c3cc(C(F)(F)F)nn3CC(=O)N(C)C)n2)ccn1 [Compound 224, (S)-1-(2-(dimethylamino)-2-oxoethyl)-N-(1-(3-(2-isopropoxypyridin-4-yl)-1,2,4-oxadiazol-5-yl)ethyl)-3-(trifluoromethyl)-1H-pyrazole-5-carboxamide]	≤ 1000 nM
C[C@H](NC(=O)OC1CCCC1)c1nc(-c2ccnc(C3CC3)c2)no1 [Compound 276]	≤ 1000 nM

Second part, the molecule after the results:

IC50	SMILES
≤ 1000 nM	CO[C@@H](C)[C@@H](NC(=O)c1cc(C(F)(F)F)nn1C)c1nc(-c2cccc(F)c2)no1 [Compound 138]
1000 to 20000 nM	CC(NC(=O)c1cc(C(F)(F)F)nn1C)c1nc(-c2cccc(O)c2)no1 (centres unmarked) [Compound 186, N-(1-(3-(3-hydroxyphenyl)-1,2,4-oxadiazol-5-yl)ethyl)-1-methyl-3-(trifluoromethyl)-1H-pyrazole-5-carboxamide]
1000 to 20000 nM	COc1cccc(-c2noc([C@H](C)NC(=O)OC(C)(C)C)n2)c1 [Compound 283, tert-butyl (S)-(1-(3-(3-methoxyphenyl)-1,2,4-oxadiazol-5-yl)ethyl)carbamate]
1000 to 20000 nM	CC(C)OC(=O)N[C@@H](C)c1nc(-c2ccnc(C3CC3)c2)no1 [Compound 277]
≤ 1000 nM	COc1cccc(-c2noc([C@H](C)NC(=O)c3cc(C(F)(F)F)nn3C)n2)c1 [Compound 196, (S)—N-(1-(3-(3-methoxyphenyl)-1,2,4-oxadiazol-5-yl)ethyl)-1-methyl-3-(trifluoromethyl)-1H-pyrazole-5-carboxamide]
1000 to 20000 nM	CC[C@H](NC(=O)OC(C)(C)C)c1nc(-c2ccnc(C)c2)no1 [Compound 284, tert-butyl (S)-(1-(3-(2-methylpyridin-4-yl)-1,2,4-oxadiazol-5-yl)propyl)carbamate]
≤ 1000 nM	C[C@H](NC(=O)c1cc(C(F)(F)F)nn1C(F)F)c1nc(-c2cccc(F)c2)no1 [Compound 127]
